We go through seven compounds from US20250066343A1, “NOVEL CANNAB[…] DERIVATIVE, PREPARATION METHOD THEREFOR, AND COMPOSITION COMPRISING SAME FOR IMPROVING COGNITIVE FUNCTION” (priority 2021, published 2025).

One may read the IC50 as the concentration that gives 50% inhibition. High values mean lower potency, low ones higher potency.

Holding throughout (type): biochemical
Assay [1] deals with T1, Monoamine oxidase B (MAO-B) (Homo sapiens, UniProt P27338).
T1 sequence (P27338 1-520): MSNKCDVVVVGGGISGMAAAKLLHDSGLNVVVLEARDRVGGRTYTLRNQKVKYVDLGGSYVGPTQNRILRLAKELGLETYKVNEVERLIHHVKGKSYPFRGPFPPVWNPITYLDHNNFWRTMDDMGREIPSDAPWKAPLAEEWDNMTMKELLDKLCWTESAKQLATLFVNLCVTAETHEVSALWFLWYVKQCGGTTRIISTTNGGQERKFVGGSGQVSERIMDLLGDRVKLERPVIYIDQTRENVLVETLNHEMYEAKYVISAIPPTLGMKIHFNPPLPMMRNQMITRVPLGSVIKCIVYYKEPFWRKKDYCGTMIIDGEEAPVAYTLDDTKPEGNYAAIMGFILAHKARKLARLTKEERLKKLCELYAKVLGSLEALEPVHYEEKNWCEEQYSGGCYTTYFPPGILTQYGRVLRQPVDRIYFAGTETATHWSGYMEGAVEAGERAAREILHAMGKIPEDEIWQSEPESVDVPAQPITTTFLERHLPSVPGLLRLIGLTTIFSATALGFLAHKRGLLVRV
Nature of the assay: Monoamine oxidase B inhibitory efficacy (kynuramine fluorescence assay). To be noted: compound 0-200 μM; enzyme 2 mU/mL; kynuramine substrate; N.D. = Not Detected. The procedure: Samples were prepared by dilution with DMSO to give concentrations of 0, 2, 5, 10, 20, 50, 100, and 200 μM of the compound, and 5 μl was dispensed into a 96-well plate. 135 μl of potassium phosphate buffer (0.1 M, 7.4 pH) was dispensed into a 96-well plate. Monoamine oxidase B was prepared at 2 mU/mL, and 50 μl was added to the 96-well plate, mixed with the dispensed compound, and left for 20 minutes. The substrate, kynuramine solution, was prepared at 100 μM, then 10 μl was added to a 96-well plate and left for 10 min. The reaction was stopped by adding 75 μl of NaOH (2N). The enzyme activity was calculated by measuring the concentration of kynuramine degraded by the enzyme using a fluorometer under 310 nm (excitation)/380 nm (emission) conditions. For the fluorescence blank experiment, potassium phosphate buffer was added instead of monoamine oxidase B to correct the compound-induced fluorescence intensity values.

Assay [2] deals with Butyrylcholinesterase (BuChE) (Homo sapiens, UniProt P06276). As to the kind of experiment: Butyrylcholinesterase inhibitory efficacy (butyrylthiocholine/DTNB absorbance assay). As to conditions: compound 0-200 μM; enzyme 50 mU/ml; N.D. = Not Detected. The method, then: (§1) Acetylcholinesterase or butyrylcholinesterase was prepared at 50 mU/ml, 50 μl was added to a 96-well plate, mixed with the aliquoted compound, and left for 10 minutes. The substrate, acetylthiocoline 0.05 mg/mL or butyrylthiocoline 0.1 mg/ml, was prepared and 50 μl was added to a 96-well plate and left for 10 minutes. Dithionitrobenzoic acid (DTNB) was prepared at 0.3 mg/ml, then 50 μl was added to a 96-well plate and left for 10 minutes.

In assay [3] the target is Acetylcholinesterase (AChE) (Homo sapiens, UniProt P22303). As to the kind of experiment: Acetylcholinesterase inhibitory efficacy (acetylthiocholine/DTNB absorbance assay). The procedure:
as §1

Acetylcholinesterase (AChE), sequence (P22303 32-614, species assumed): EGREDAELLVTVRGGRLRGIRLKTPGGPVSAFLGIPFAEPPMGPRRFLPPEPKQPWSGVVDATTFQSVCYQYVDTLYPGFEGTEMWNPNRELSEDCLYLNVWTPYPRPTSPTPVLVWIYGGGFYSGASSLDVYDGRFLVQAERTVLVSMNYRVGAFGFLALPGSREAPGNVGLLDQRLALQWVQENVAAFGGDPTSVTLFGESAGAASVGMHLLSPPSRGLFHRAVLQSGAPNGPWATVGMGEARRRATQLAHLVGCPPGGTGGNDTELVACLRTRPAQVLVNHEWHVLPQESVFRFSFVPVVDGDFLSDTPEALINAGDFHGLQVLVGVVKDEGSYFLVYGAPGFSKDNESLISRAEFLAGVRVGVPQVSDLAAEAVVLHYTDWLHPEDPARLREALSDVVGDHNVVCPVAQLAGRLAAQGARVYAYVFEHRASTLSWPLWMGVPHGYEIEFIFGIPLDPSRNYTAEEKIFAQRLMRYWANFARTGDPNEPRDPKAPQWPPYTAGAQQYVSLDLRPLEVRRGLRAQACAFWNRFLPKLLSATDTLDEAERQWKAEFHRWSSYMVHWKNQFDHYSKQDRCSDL
Butyrylcholinesterase (BuChE), sequence (P06276 29-602): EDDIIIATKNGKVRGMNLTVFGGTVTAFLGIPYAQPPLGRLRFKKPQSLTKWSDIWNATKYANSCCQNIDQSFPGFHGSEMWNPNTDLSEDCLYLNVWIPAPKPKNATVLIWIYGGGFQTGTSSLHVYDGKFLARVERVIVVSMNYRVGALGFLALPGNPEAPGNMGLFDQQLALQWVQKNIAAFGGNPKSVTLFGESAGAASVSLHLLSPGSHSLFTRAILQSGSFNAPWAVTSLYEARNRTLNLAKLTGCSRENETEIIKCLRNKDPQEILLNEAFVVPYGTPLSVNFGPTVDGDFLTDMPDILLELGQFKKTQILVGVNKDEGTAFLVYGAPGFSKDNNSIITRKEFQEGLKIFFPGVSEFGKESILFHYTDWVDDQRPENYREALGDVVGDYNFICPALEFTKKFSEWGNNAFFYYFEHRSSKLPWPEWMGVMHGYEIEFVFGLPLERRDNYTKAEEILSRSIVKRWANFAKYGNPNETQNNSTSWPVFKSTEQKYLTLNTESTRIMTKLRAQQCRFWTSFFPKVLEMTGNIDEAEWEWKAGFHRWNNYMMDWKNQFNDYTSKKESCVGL

On to `CCCCCc1cc2c(c(O)c1C(=O)NC1Cc3ccccc3C1)C=CC(C)(CCC=C(C)C)O2` (stereo not drawn) [Compound 4aa, N-(2,3-dihydro-1H-inden-2-yl)-5-hydroxy-2-methyl-2-(4-methylpent-3-en-1-yl)-7-pentyl-2H-chromene-6-carboxamide], for which the IC50 turned out to be 100 µM in assay [1], 164 µM in assay [2] and 2 µM in assay [3].

`CCCCCc1cc2c(c(O)c1C(=O)N1CCN(CCO)CC1)C=CC(C)(CCC=C(C)C)O2` (stereo not drawn) [Compound 4ae, (5-hydroxy-2-methyl-2-(4-methylpent-3-en-1-yl)-7-pentyl-2H-chromen-6-yl)(4-(2-hydroxyethyl)piperazin-1-yl)methanone]: the figures for the half-inhibitory concentration (IC50) in assay [1], in assay [2] and in assay [3] were 55.8 µM, 72.3 µM and below 0.5 µM, respectively.

Take `CCCCCc1cc2c(c(O)c1C(=O)Nc1ccccc1)C=CC(C)(CCC=C(C)C)O2` (stereo not drawn) [Compound 4b, 5-hydroxy-2-methyl-2-(4-methylpent-3-en-1-yl)-7-pentyl-N-phenyl-2H-chromene-6-carboxamide]: the half-maximal inhibitory concentration (IC50) in assay [1] stood at 176 µM; in assay [2] it was 94.6 µM; in assay [3], 0.4 µM.

With `CCCCCc1cc2c(c(O)c1C(=O)NC1CCCC1)C=CC(C)(CCC=C(C)C)O2` (stereo not drawn) [Compound 4e, N-cyclopentyl-5-hydroxy-2-methyl-2-(4-methylpent-3-en-1-yl)-7-pentyl-2H-chromene-6-carboxamide], the half-maximal inhibitory concentration (IC50) in assay [2] and in assay [3] was 0.4 µM in each case.

Take `CCCCCc1cc2c(c(O)c1C(=O)NC1CCN(C)CC1)C=CC(C)(CCC=C(C)C)O2` (stereo not drawn) [Compound 4q, 5-hydroxy-2-methyl-2-(4-methylpent-3-en-1-yl)-N-(1-methylpiperidin-4-yl)-7-pentyl-2H-chromene-6-carboxamide]: the half-inhibitory concentration (IC50) is 131 µM in assay [1] and 6.2 µM in assay [2].

Regarding `CCCCCc1cc2c(c(O)c1C(=O)NCCc1ccc(O)cc1)C=CC(C)(CCC=C(C)C)O2` (stereo not drawn) [Compound 4x, 5-hydroxy-N-(4-hydroxyphenethyl)-2-methyl-2-(4-methylpent-3-en-1-yl)-7-pentyl-2H-chromene-6-carboxamide], the concentration for half-maximal inhibition (IC50) in assay [2] worked out at 2.6 µM; in assay [3], 0.8 µM.

For the compound `CCCCCc1cc2c(c(O)c1C(=O)NN1CCCCC1)C=CC(C)(CCC=C(C)C)O2` (stereo not drawn) [Compound 4z, 5-hydroxy-2-methyl-2-(4-methylpent-3-en-1-yl)-7-pentyl-N-(piperidin-1-yl)-2H-chromene-6-carboxamide], the values for the IC50 in assay [1], in assay [2] and in assay [3] were 156 µM, 1.3 µM and 29 µM, respectively.
